Test results taken from patent publication EP0557303B1, “N- (2-THENOYLMERCAPTO-3-METHYL)-BUTANOYL]-HOMOCYSTEINE THIOLACTONE, A PROCESS FOR THE PREPARATION THEREOF AND PHARMACEUTICAL COMPOSITIONS CONTAINING IT” (priority 1990, dated 1992).

Legend:
[1] = tested on: collagenase from Clostridium Histolyticum; test: Collagenase inhibiting activity (method of Appel, substrate N-carbobenzoxy-pro-gly-gly-L-pro-L-alanine); type: biochemical; settings: collagenase type II (Sigma), collagen synthetic peptide substrate
Protocol: The proteolytic activity of collagenase from Clostridium Histolyticum (Sigma, type II) was dosed according to the method by Appel (Method in enzymatic analysis, H.U. Bergmayer Vol. 2, pp. 1058-1063; 1978) using the collagen synthetic peptide N-carbobenzoxy-pro-gly-gly-L-pro-L-alanine as the substrate.

[2] = tested on: arteriosclerotic lesions induced by the diet in the rabbit; test: Antiarteriosclerotic activity (procedure of C.T. Cahn, diet-induced lesions); type: in vivo; settings: compound given together with the diet, end of a 12 week treatment
Protocol: The antiarteriosclerotic activity was tested according to the procedure described by C.T. Cahn, Circul. Research, 43, 115, 1975. The procedure consists in verifying any protecting actions of a drug on arteriosclerotic lesions induced by the diet in the rabbit.

Row | SMILES | inhibiting activity [1] | IC50 ([1]; read-out: IC₅₀) [nM] | cholesterol levels [2] | collagen levels in the connective tissue of the aorta intima [2] | elastin levels in the connective tissue of the aorta intima [2] | triglyceride levels [2]
1 | CC(SC(=O)c1cccs1)C(=O)NC1CCSC1=O (stereo not drawn) [MR-889, 2-(2-Thenoylthio)-N-(2',3',4',5'-tetrahydro-2'-keto-thiophen-3'-yl)propionyl amide, reference compound] | almost no inhibiting activity | – | – | – | – | –
2 | CC(C)C(SC(=O)c1cccs1)C(=O)NC1CCSC1=O (stereo not drawn) [MR-2047, N-[(2-thenoylmercapto-3-methyl)-butanoyl]-homocysteine thiolactone] | – | ~2000 | significant reduction | significant reduction | significant reduction | significant reduction
